Data set [1] can be described thus: Oral bioavailability in rat. It counts as ADME, organism-based. The following applies: in vivo.
Data set [2] is described as follows: Oral bioavailability in dog. It is filed as ADME, organism-based, Canis lupus familiaris. The following applies: in vivo.

SMILES strings stand for the structures.

For `COc1cc2c(cc1Cc1cccc(Cl)c1F)c(=O)c(C(=O)O)cn2[C@H](CO)C(C)C` [ELVITEGRAVIR], the bioavailability (usually the share of a dose that reaches the circulation, judged against a reference dose that is usually intravenous) was 34% in data set [1] and 30% in data set [2].

The values are drawn from ChEMBL document CHEMBL1156072, “Twenty-six years of anti-HIV drug discovery: where do we stand and where do we go?” (J Med Chem, 2010).
